Here are results for three compounds from patent US20240269096A1, “Rapid Onset Therapeutic Ketosis Enabled by D-BetaHydroxyButyric Acid Systems, Compounds and Methods for Sepsis Protection and Enhanced Medical Recovery” (American Ketone Therapeutics LLC, priority 2022, published 2024).

A short description of series [1]: Blood ketone levels by Abbott blood test strip after oral free D-BHB. Type of series: in vivo, human. The source says:
FIG. 9 is a graphical illustration of D-BHB exogenous ketone blood levels. The above Abbot blood ketone meter evidenced by Abbott blood test strip depicts the rapid rise in blood ketone levels from 0.1 mmol/L (absence of ketosis) to 2.7 mmol/L (ketosis) after oral bolus administration of 15 grams of bioidentical free D-BetaHydroxyButyric Acid. The ketone levels depicted are attained in the absence of a salt as well as without ester bonds. It is the free acid D-BHB exogenously administered which is bio-identical to the endogenous D-BHB free acid generated by the human body. The bioidentical ketone body D-BHB is first and foremost an energy source, which is directly and preferentially metabolized by the brain. D-BHB is also active as a signaling mechanism and neuro-inflammation reduction agent, resulting in broad and beneficial brain bioenergy related benefits.
FIG. 10 is a graphical illustration of D-BHB exogenous ketone blood levels. FIG. 10 details rapid ketosis within 45 minutes confirmed by Abbott blood test strip after 10 g D-BHB with palatability agent administered by oral drink. Blood ketone levels document rise from 0.2 mmol/L to 1.8 mmol/L and 0.6 mmol/L to 1.9 mmol/L in a variety of test subjects. FIG. 10 reinforces the fact that supplementation by utilizing free D only BetaHydroxyButyric Acid without ketone salt or ketone ester is a reliable, reproduceable method and system for rapid ketone level increase for stroke recovery and maintenance. While amounts of free D only BetaHydroxyButyric Acid taken for stroke effects may vary, it is an anticipated preferred embodiment that levels between 5 and 30 grams of D only BetaHydroxyButyric Acid are taken as needed for optimum recovery. Alternate embodiments may include lower or higher amounts, however, experimental evidence has confirmed optimal administration in this range for a wide variety of other applications.

Series [2] can be described thus: Continuous glucose monitoring (Abbot Libre CGM) with carbohydrate challenge. Type of series: in vivo. The settings on record: 10 g administered 45 minutes before 50 g carbohydrate ingestion; versus unsupplemented ingestion. The source says: FIG. 11 is a graphical illustration of continuous monitoring of body glucose levels. FIG. 11 depicts continuous glucose monitoring levels with carbohydrate challenge documented by Abbot Libre Continuous Glucose Monitoring (CGM) device. In this illustrative embodiment, glucose levels from a 50 g carbohydrate ingestion are depicted unaided by free D-BetaHydroxyButyric Acid on the left and repeated the following day with two 50 g carbohydrate ingestions accompanied by 10 g free D-BetaHydroxyButyric Acid administered 45 minutes before the carbohydrate insult. […] As free D-BetaHydroxyButyric Acid can lower glucose while rapidly increasing ketone levels, it is believed that obtaining high ketones while lowering glucose will yield additional stroke recovery benefits for high glucose sensitive individuals suffering from sepsis and may be considered in lieu of insulin administration.

Series [3] in a line: Continuous Ketone Meter (CKM) monitoring of body ketone levels and deep sleep. Type of series: in vivo. The settings on record: 5 grams consumed 45 minutes prior to bedtime. The text has this: FIG. 12 is a graphical illustration of continuous monitoring of body ketone levels resulting in improved deep sleep time due to enhanced D-BHB levels according to the claimed invention. It is noteworthy that consumption of even small amounts of free D-BetaHydroxyButyric Acid can give rise to therapeutic ketosis levels as measured by Continuous Ketone Meter (CKM). […] While free D-BetaHydroxyButyric Acid is not a sedative, even small amounts can greatly improve deep sleep quantity and quality. It is an intended and foreseeable embodiment application to increase deep sleep with free D-BetaHydroxyButyric Acid with the aim of guarding against sepsis, improving hospital recovery and enhanced resiliency.

The conditions of series [4]: compared with ketone salts; FIG. 5 literature data; cited from earlier work.
A further series has as its target T1, NLRP3 inflammasome (Homo sapiens, UniProt Q96P20).
T1 construct: host or cells: macrophages
The settings on record: independently of GPR109A binding or mitochondrial oxidation; cited from earlier work.

Series [5] relates to LPS-induced myocardial injury and cardiac dysfunction. The settings on record: mouse model; study utilized the synthetic ketone ester; cited from earlier work.

SMILES strings stand for the structures. Several values for one entry are separate records, joined by “and”; a condition that tells them apart may be missing. Identical values can stand only once. Some results are limits rather than exact numbers.

T1 sequence (Q96P20 whole entry): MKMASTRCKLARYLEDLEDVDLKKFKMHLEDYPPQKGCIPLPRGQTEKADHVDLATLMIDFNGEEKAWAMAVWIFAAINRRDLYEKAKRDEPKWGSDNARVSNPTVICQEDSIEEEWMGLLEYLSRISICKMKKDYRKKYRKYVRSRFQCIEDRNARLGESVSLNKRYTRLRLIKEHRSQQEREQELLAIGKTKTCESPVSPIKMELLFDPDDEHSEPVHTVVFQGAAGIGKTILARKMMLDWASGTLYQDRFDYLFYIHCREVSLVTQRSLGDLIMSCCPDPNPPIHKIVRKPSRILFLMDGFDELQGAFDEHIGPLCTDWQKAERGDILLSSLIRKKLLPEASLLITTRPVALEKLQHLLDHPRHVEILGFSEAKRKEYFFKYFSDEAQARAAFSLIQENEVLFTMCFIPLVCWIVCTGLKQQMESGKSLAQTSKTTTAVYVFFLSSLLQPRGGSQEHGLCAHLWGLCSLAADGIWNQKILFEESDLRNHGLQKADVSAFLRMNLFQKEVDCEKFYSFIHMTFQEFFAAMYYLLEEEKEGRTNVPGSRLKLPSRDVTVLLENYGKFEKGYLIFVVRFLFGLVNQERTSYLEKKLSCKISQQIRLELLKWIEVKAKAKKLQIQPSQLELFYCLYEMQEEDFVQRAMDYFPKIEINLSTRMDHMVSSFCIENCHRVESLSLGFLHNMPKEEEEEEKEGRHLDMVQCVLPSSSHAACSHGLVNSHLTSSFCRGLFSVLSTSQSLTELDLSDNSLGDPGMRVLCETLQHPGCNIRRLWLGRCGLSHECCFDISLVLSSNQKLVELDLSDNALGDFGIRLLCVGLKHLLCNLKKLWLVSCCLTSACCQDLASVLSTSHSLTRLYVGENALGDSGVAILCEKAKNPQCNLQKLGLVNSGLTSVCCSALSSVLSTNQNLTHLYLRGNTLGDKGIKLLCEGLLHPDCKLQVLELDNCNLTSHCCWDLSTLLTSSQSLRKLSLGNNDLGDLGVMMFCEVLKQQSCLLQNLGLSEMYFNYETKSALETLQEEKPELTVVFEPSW

On to `C[C@@H](O)CC(=O)O` [D-BHB, D-β-HydroxyButyric Acid], for which the time to ketosis in series [1] (10 g with palatability agent by oral drink) was at most 45 min. Further, the “blood ketone levels after administration” value in series [1] (10 g with palatability agent by oral drink, within 45 minutes, rise from 0.2 and 0.6 mmol/L respectively, different test subjects) is 1.8 mmol/L and 1.9 mmol/L. The “blood ketone levels after administration” value in series [1] (oral bolus of 15 grams, rise from 0.1 mmol/L (absence of ketosis)) was found to be 2.7 mmol/L. The “glucose spike after carbohydrate ingestion” value in series [2] was “the rapid glucose spike depicted in the unsupplemented ingestion is not found”. In series [3], the “increase in ketone level (CKM)” value came out at 1.5 mmol/L and the “quantity of deep sleep” value is on record as “enhance the quantity of deep sleep obtained”.
On to `C[C@@H](O)CCOC(=O)C[C@@H](C)O` [ketone ester, (R)-3-hydroxybutyl (R)-3-hydroxybutyrate], for which the ketone level response entry in series [4] is reported as “higher ketone level response”.
Turning to `CC(O)CC(=O)O` (stereo not drawn) [β-OHB, β-Hydroxybutyrate], the “effect on NLRP3 inflammasome in macrophages” value on NLRP3 inflammasome is “inhibits the NLRP3 inflammasome”. Moreover, the “effect on LPS-induced myocardial injury and cardiac dysfunction” value in series [5] was “prevent LPS-induced myocardial injury and cardiac dysfunction”.
